Experimental data published in publication PMC11284790, “Targeting Myeloperoxidase Ameliorates Gouty Arthritis: A Virtual Screening Success Story” (Journal of Medicinal Chemistry, 2024).

What was measured:
[1] = Taurine chloroamine scavenger assay; conditions: 15 min at 37 °C, TMB readout
Protocol: Taurine chloramine was prepared by mixing hypochlorous acid (2.81 mM) with taurine (5 mM), cetyltrimethylammonium chloride (0.03%), NaCl (140 mM), and diethylenetriaminepentaacetic acid (100 μM) in phosphate buffer (20 mM, pH 7.4). The system was kept at 37 °C for 5 min for complete chloramine taurine formation. The compounds were added to this mixture and incubated for 15 min at 37 °C. Taurine chloramine was quantified by the oxidation of TMB (2 mM) catalyzed by iodide (100 μM).[33]

Human leukocyte MPO = Human leukocyte MPO (Homo sapiens, UniProt P05164); test: Oxidation of the compounds by MPO/H2O2 (intrinsic fluorescence decay); type: biochemical; design: Human leukocyte MPO (EC 1.7.1.11) was purchased from Planta Natural Products; purchased Planta Natural Products (Vienna, Austria); host or cells: human leukocytes; conditions: 1 μM compound; for compound oxidation by MPO/H2O2 in the presence of chloride (fluorescence) / compound oxidation by MPO/H2O2 in the absence of chloride (fluorescence): 10 nM MPO; for compound oxidation by MPO/H2O2 in the presence of chloride (fluorescence): 40 μM H2O2, 140 mM NaCl; for compound oxidation by MPO/H2O2 in the absence of chloride (fluorescence): 40 μM H2O2, no chloride
Chain of Human leukocyte MPO (P05164 279-745 limits assumed): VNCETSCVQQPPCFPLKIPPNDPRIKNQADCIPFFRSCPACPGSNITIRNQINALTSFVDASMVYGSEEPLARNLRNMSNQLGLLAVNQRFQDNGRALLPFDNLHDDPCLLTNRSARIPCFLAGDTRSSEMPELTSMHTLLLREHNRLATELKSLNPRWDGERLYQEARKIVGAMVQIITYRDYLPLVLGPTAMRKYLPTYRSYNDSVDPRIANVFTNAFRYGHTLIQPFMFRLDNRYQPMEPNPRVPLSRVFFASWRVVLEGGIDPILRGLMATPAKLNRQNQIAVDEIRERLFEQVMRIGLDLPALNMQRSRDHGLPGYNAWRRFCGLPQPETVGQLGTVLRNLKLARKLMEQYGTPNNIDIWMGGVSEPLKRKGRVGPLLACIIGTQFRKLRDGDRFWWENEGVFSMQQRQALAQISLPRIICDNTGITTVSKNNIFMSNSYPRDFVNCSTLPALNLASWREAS
Chain of Human leukocyte MPO (P05164 165-278 limits assumed): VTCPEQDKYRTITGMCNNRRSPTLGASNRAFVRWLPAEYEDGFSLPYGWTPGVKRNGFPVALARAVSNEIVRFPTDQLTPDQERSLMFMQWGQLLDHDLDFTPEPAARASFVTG
Protocol: Changes in the absorption and fluorescence spectra of RL6 and RL7 were determined by incubating 1 μM compounds in 0.3% DMSO and phosphate buffer (20 mM, pH 7.4) with or without MPO (10 nM), diethylenetriaminepentaacetic acid (100 μM), taurine (5 mM), cetyltrimethylammonium chloride (0.03%), and NaCl (140 mM). In the chloride-free system, NaCl and taurine were omitted, and cetyltrimethylammonium chloride was replaced by cetyltrimethylammonium bisulfate. The reaction was performed in the absence or presence of Tyr (50 μM) and was started by adding 40 μM hydrogen peroxide. RL6 and RL7 consumption was monitored by fluorescence at λex = 413/λem = 603 nm for RL6 or λex = 306/λem = 603 nm for RL7 in a microplate reader.

IL-6 = test: Paw tissue IL-6 level after MSU (ELISA); type: in vivo, male C57BL/6 mice; conditions: intraperitoneal pretreatment (RL6 30 mg/kg), tissue collected at 6 h
Protocol: The remaining part of the homogenate was treated with a solution of protease/phosphatase inhibitors (1 mM phenylmethylsulfonyl fluoride, 10 μg/mL leupeptin, and 10 μg/mL trypsin inhibitor) and centrifuged at 10,000g (10 min at 4 °C). The obtained supernatants were subjected to 1:2 dilution in PBS and subsequently used for the assessment of IL-1β and IL-6 using murine enzyme-linked immunosorbent assay kits, specifically a sandwich ELISA technique, following manufacturer’s instructions (BioLegend, CA, USA). The protein content within the samples was determined by using the Bradford method (1976). The results were quantified and expressed in pg/mg of protein (Bio-Rad, Hercules, CA, USA).[76]

dHL-60 cells = test: Cellular production of HOCl, PMA-activated dHL-60 cells; type: cell-based, human; conditions: 20 μM compound, 100 nM PMA, 1 h
Protocol: Human promyelocytic leukemic cells (HL-60) (BCRJ, RJ, Brazil) were cultivated in RPMI with fetal bovine serum (10%), penicillin (62 μg/mL), and streptomycin (100 μg/mL) at 37 °C in 5% CO2 atmosphere. HL-60 cells were differentiated to neutrophil-like (dHL-60) by DMSO (1.25%) during 4 days.[25]
Measurement of HOCl production by 1 × 10^6 dHL-60 or neutrophils was carried out in PBS (10 mM Na2HPO4, 2 mM KH2PO4, 0.5 mM MgCl2, 1 mM CaCl2, 140 mM NaCl, 5.5 mM dextrose, 100 μM diethylenetriaminepentaacetic acid, 5 mM taurine) in the presence of the compounds (20 μM in 0.3% DMSO) or 0.3% DMSO (control). Cells were activated with phorbol myristate acetate (100 nM) at 37 °C for 1 h. After incubation, cells were centrifuged at 1400 rpm for 10 min, and the supernatant was diluted threefold. Finally, 240 μL of this supernatant was added to 60 μL acetate buffer (400 mM, pH 5.4) containing NaI (100 μM) and TMB (2 mM in DMFO 10%). Taurine chloramine was quantified by TMB oxidation at 655 nm.[33] Inhibition of HOCl production was calculated as the percentage of the control (vehicle).

MSU-induced paw edema = test: MSU-induced paw edema, intraperitoneal treatment; type: in vivo; conditions: for effect on paw edema over time: i.p. 30 min before MSU, mefenamic acid 30 mg/kg, RL6 3, 10, 30, RL7 0.3, 3, 30, ZINC9089086 3, 10, 30 mg/kg, 6 h
Protocol: MSU-induced edema was performed as previously described.[22] The compounds were prepared by dilution in a solution containing 0.5% Tween 80 and 5% DMSO and then resuspended in PBS prior to administration. The animals were treated intraperitoneally (i.p.) with the following substances: vehicle (VEH: 5% DMSO; 0.5% Tween 80 in PBS), mefenamic acid (a nonsteroidal anti-inflammatory drug at a dosage of 30 mg/kg), RL6 (at doses of 3, 10, and 30 mg/kg), RL7 (at doses of 0.3, 3, and 30 mg/kg), or ZINC9089086 (at doses of 3, 10, and 30 mg/kg).[31] After 30 min, the mice were anesthetized using inhaled isoflurane (2% v/v in O2). A hypodermic syringe with a 31-gauge needle (BD, Franklin Lakes, NJ, USA) was used to administer the vehicle (VEH: PBS, 30 μL) or MSU (1.5 mg/30 μL) via the intraplantar route (i.pl.), into the right hind paw (Figure 9).
Paw volume (mL) was measured at various time points, including before injection (baseline, B), […] 1, 2, 3, 4, 5, and 6 h following MSU injection using a plethysmometer (Ugo Basile, Comerio, Italy) (Figure 7). For this, the injected hind paw was immersed into the dipping solution (6 mM NaCl diluted in distilled water and added with 2 mL/L of a wetting compound provided by the manufacturer) until the ankle. The extent of edema was quantified as a change in paw volume (Δ mL) by subtracting the basal paw volume from the volume of the paw measured at each time point. To evaluate the antiedematogenic effect of orally administered MPO inhibitors (p.o.), the animals were fasted for 1 h and then treated with equimolar doses of the following substances: vehicle (VEH: 5% DMSO; 0.5% tween 80 in PBS), mefenamic acid (30 mg/kg), RL 6 (33 mg/kg), RL 7 (54 mg/kg), RL 21 (30 mg/kg), or ZINC9089086 (34 mg/kg). After 1 h, the anesthetized mice (2% isoflurane, v/v in O2) received either the vehicle (PBS, 30 μL, i.pl.) or 1.5 mg/30 μL MSU (i.pl.). The paw volume was evaluated at the same time points as previously described. The percentage of edema inhibition by the compounds was calculated discounting the paw volume of mice that received oral or intraperitoneal vehicle and PBS intraplantar (VEH + VEH).

Row | Compound | scavenger activity toward taurine chloramine [1] | compound oxidation by MPO/H2O2 in the presence of chloride (fluorescence) (Human leukocyte MPO) | compound oxidation by MPO/H2O2 in the absence of chloride (fluorescence) (Human leukocyte MPO) | compound oxidation by MPO/H2O2 in the presence of tyrosine (fluorescence) (Human leukocyte MPO; 50 μM tyrosine) | effect on IL-6 levels in hind paw tissue (IL-6) | inhibition of HOCl production in dHL-60 cells (dHL-60 cells) | reduction of paw edema (time-dependent AUC) vs VEH + MSU (MSU-induced paw edema; 10 mg/kg i.p.) [%] | reduction of paw edema (time-dependent AUC) vs VEH + MSU (MSU-induced paw edema; 30 mg/kg i.p.) [%] | acute toxicity observed in mice (MSU-induced paw edema; during the in vivo tests) | effect on paw edema over time (MSU-induced paw edema) | reduction of paw edema (time-dependent AUC) vs VEH + MSU (MSU-induced paw edema; 3 mg/kg i.p.) [%]
1 | Nc1cc2c3c(cccc3c1)C(=O)N(N)C2=O [RL6] | did not scavenge taurine chloramine | did not undergo any alteration | did not undergo any alteration | No oxidation occurred | no significant impact | significantly inhibited | 80.4 | 83.2 | no sign of acute toxicity | significantly prevented paw edema | –
2 | CN1CCc2nc3sc(C(=O)Nc4cccc(C#N)c4)c(N)c3cc2C1 [RL7] | did not scavenge the milder oxidant taurine chloroamine | further consumed in the full reaction system in the presence of chloride | not further enhanced by hydrogen peroxide/MPO | – | unable to decrease | significantly inhibited | – | 90.2 | – | inhibited paw edema at all of the tested doses | 82.8
